Results from publication PMC5333544, “Purification and biochemical characterization of recombinant Persicaria minor β-sesquiphellandrene synthase” (PeerJ, 2017).

Legend:
[1] = target: T1, PmSTS_Δ24 (Persicaria minor, UniProt I6XZ73); test: malachite green phosphate assay coupled to inorganic diphosphatase; format: biochemical; details: 20 mM HEPES pH 8.0, 10 mM MgCl2, 30 °C, 0.1 µM enzyme, 2–30 µM FPP; read-out: Km app
T1 construct: N-terminal 24 residues removed from the 562-residue protein; N-terminal His6 tag (pET28b), no cleavage told; E. coli BL21 (DE3); PCR primer codes for Met-AGFKPS start; monomer stated for the full-length enzyme

[2] = target: T2, PmSTS_Δ24 (Persicaria minor, UniProt I6XZ73, K266E, form not given); test: GC-MS product analysis after hexane extraction; format: biochemical; details: overnight incubation; product beta-sesquiphellandrene
T2 construct: N-terminal 24 residues removed from the 562-residue protein; N-terminal His6 tag (pET28b), no cleavage told; E. coli BL21 (DE3); PCR primer codes for Met-AGFKPS start; monomer stated for the full-length enzyme
T2 sequence (I6XZ73 entry or part of it K266E, form open): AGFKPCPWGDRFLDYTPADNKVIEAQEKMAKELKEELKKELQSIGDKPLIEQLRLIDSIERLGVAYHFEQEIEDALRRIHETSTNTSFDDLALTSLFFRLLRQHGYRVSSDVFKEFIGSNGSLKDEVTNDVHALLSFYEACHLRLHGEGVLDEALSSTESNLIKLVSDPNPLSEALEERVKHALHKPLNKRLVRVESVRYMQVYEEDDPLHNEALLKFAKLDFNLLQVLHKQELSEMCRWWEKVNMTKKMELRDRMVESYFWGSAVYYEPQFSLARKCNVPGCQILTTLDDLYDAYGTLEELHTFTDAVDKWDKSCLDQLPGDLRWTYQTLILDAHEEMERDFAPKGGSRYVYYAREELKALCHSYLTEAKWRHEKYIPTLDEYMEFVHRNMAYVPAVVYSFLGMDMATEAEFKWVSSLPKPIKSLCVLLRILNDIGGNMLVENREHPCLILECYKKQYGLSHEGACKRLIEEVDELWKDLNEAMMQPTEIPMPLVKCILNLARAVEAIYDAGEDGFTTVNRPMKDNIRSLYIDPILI

T1 sequence (I6XZ73 entry or part of it, stated change not applied): as the sequence (I6XZ73 entry or part of it K266E, form open) above, with E242K counted along it

Km [1] | Compound | GC-MS product analysis after hexane extraction [2]
10.2 µM | CC(C)=CCC/C(C)=C/CC/C(C)=C/CO[P@@](=O)(O)OP(=O)(O)O (stereo in doubt) [farnesyl diphosphate] | 
 | CC(C)=CCC/C(C)=C/CC/C(C)=C/COP(=O)(O)OP(=O)(O)O [farnesyl diphosphate] | mutant protein K266E produced using an E. coli expression system displayed a product profile
